Test results reported in PMC12308784, “Organometallic Half-Sandwich Complexes of 1,10-Phenanthroline Derivatives with Improved Solubility, Albumin-Binding, and Nanoformulation Potential Targeting Drug Resistance in Cancer” (Inorganic Chemistry, 2025).
Several values for one entry are separate records, joined by “and”; a condition that tells them apart may be missing. Equal entries are not always repeated. Where two headings read alike, the source gives them in different places.

Tests used:
[1] = n-octanol/water distribution coefficient, shake-flask; assay type: physicochemical; conditions: n-octanol/20 mM phosphate buffer, pH = 7.4, t = 25 °C; for logD at 4 h: n-octanol/buffered aqueous solution
Source text: The bioactive compounds must cross the cell membrane, which is influenced by their lipophilicity. Therefore, we characterized the lipophilicity of the complexes using n-octanol–water partitioning at three different chloride ion concentrations at pH 7.4. As the H2O/Cl^– exchange alters the charge of the complexes, it consequently affects their lipophilicity. The ratio of chlorido and aqua complexes depends on the actual Cl^– concentration and the chloride affinity of the complex. Chloride ion concentrations were chosen to mimic physiological conditions, specifically those found in blood (100 mM), cytosol (24 mM), and the nucleus (4 mM).
The traditional shake-flask method was used to obtain distribution coefficients of the ligands as well as of the complexes in n-octanol/buffered aqueous solution (20 mM phosphate, pH = 7.4) at different chloride ion concentrations (4, 24, and 100 mM) using UV–vis spectrophotometry (Agilent Cary 8454 diode array spectrophotometer) for the analysis. The compounds were dissolved in buffered aqueous solutions previously saturated with n-octanol. Then the aqueous and n-octanol phases were gently mixed in different volume ratios (using 1:60 for the ligands, 1:10 for the RhCp* and the RuCym complexes ratios of n-octanol to buffered aqueous solution volume) for 4 h, followed by phase separation. Then the UV–vis spectrum of the original aqueous sample and the aqueous and n-octanol phases was recorded and distribution coefficients (D) were calculated according to the formula described in our former work in detail.

MCF-7 = test: PrestoBlue cytotoxicity assay; assay type: cell-based; conditions: for pIC50 (mean): Table S5
Procedure: (§1) MDA-MB-231 breast adenocarcinoma and MCF-7 and T-47D invasive breast carcinomas were purchased from the Developmental Therapeutic Program of the National Cancer Institute (NIH, USA), and they were cultured in RPMI medium (Thermo Fisher). MES–SA and MES–SA/Dx5 uterine sarcoma cell lines were purchased from American Type Culture Collection and were kept in DMEM (Thermo Fisher). MES–SA/B1 was created by the transfection of the human MDR1 gene in MES–SA, and MES–SA mCherry, MES–SA/B1 mOrange, and MES–SA/Dx5 eGFP were engineered to stably express the respective fluorescent proteins, as described previously. Culture media were supplemented with 10% fetal bovine serum, 2 mM L-glutamine, 100 units/mL penicillin, and 100 μg/mL streptomycin (Thermo Fisher). Cells were kept at 37 °C under 5% CO2 and were negative for mycoplasma infection.
(§2) Cytotoxicity of the nonfluorescent cancer cells (MDA-MB-231, MCF-7, T-47D) were assessed with PrestoBlue cell viability reagent (Thermo Fisher). Briefly, 2500 cells/well were seeded on 384-well plates, and then the next day drugs were added. After 72 h incubation, PrestoBlue was added in a 10% final concentration, and after an hour of additional incubation, plates were measured with a PerkinElmer EnSpire plate reader at 555 nm/585 nm excitation/emission wavelengths. Fluorescent cells (MES-SA mCherry, MES-SA/B1 mOrange, MES-SA/Dx5 eGFP) were admixed before seeding on 384-well plates at 800 cells/well density each, thus altogether 2400 cells/well. Drugs were added the following day, and the intensity of the fluorescent proteins were measured after 144 h incubation at the respective fluorescent channels (excitation/emission: eGFP: 485 nm/510 nm; mCherry: 585 nm/610 nm; mOrange: 545 nm/567 nm). pIC50 values were calculated by a custom program written by Judit Sessler in C#. IC50 values and standard deviation were calculated from average pIC50 values from at least 3 independent measurements. Since the IC50 values were obtained through nonlinear regression fitting of the viability vs. log(concentration) data, the resulting confidence intervals are inherently asymmetric (see pIC50 values and their corresponding SD in Tables S5 and S6).

MDA-MB-231 = test: PrestoBlue cytotoxicity assay; assay type: cell-based; conditions: for pIC50 (mean): Table S5
Procedure: as §1, §2

T47D = test: PrestoBlue cytotoxicity assay; assay type: cell-based; conditions: for pIC50 (mean): Table S5
Procedure: as §1, §2

MES-SA mCherry = test: fluorescent triple coculture cytotoxicity assay; assay type: cell-based, human
Source text: (§3) Cytotoxicity of the compounds were further tested also in an in vitro MDR model system, consisting of an MES-SA uterine sarcoma cell line, and its P-gp (ABCB1) overexpressing variants MES-SA/B1, that was genetically engineered to express P-gp, and MES-SA/Dx5, which acquired a P-gp-mediated MDR phenotype due to selection in doxorubicin. , The expression of different fluorescent proteins in each line (mCherry, mOrange, or eGFP) allowed coculturing of these three cell lines, providing more relevant data compared to monocultures, as the interaction between parental and resistant phenotypes is reflected in cytotoxicity.
(§4) Cytotoxicity of nanoformulated [RhCp*(BP)-Cl]-Cl with cross-linked HSA and HTP carriers was tested against the previously introduced triple coculture of fluorescent MES-SA cells with a slight difference. Namely, the media containing the dissolved products were removed from the wells, and fresh media was added prior to the measurement as the presence of cross-linked HSA and HTP formulations interfered with the fluorescence of the cells.
as §1
as §2, with “Fluorescent cells (MES-SA mCherry, MES-SA/B1 mOrange, MES-SA/Dx5 eGFP) were admixed before seeding on 384-well plates at 800 cells/well density each, thus altogether 2400 cells/well.” left out

MES-SA/B1-mOrange = test: fluorescent triple coculture cytotoxicity assay; assay type: cell-based, human; conditions: for SR (MES-SA/B1): selectivity ratio versus parental MES-SA
Source text: as §3, §4, §1
as §2, with “Fluorescent cells (MES-SA mCherry, MES-SA/B1 mOrange, MES-SA/Dx5 eGFP) were admixed before seeding on 384-well plates at 800 cells/well density each, thus altogether 2400 cells/well.” left out

MES-SA/Dx5-eGFP = test: fluorescent triple coculture cytotoxicity assay; assay type: cell-based, human; conditions: for SR (MES-SA/Dx5): selectivity ratio versus parental MES-SA
Source text: as §3, §4, §1
as §2, with “Fluorescent cells (MES-SA mCherry, MES-SA/B1 mOrange, MES-SA/Dx5 eGFP) were admixed before seeding on 384-well plates at 800 cells/well density each, thus altogether 2400 cells/well.” left out

[2] = Homo sapiens, MCF7, 72 h, 384-well plate, read-out: IC50
[3] = Homo sapiens, MCF7, Table S5, read-out: pIC50 (mean) (converted)
[4] = Homo sapiens, 72 h, 384-well plate, read-out: IC50
[5] = Homo sapiens, Table S5, read-out: pIC50 (mean) (converted)
[6] = Homo sapiens, MES-SA, 144 h, MES-SA mCherry, coculture, 384-well plate, 144 h, read-out: IC50
[7] = Homo sapiens, MES-SA, Mes-Sa mCherry, 384-well plate, Table S6, read-out: pIC50 (mean) (converted)
[8] = MES-SA mCherry, coculture, 384-well plate, 144 h, read-out: IC50
[9] = Homo sapiens, MES-SA/B1-mOrange, coculture, 384-well plate, 144 h, read-out: IC50
[10] = Homo sapiens, Mes-Sa/B1 mOrange, 384-well plate, Table S6, read-out: pIC50 (mean) (converted)
[11] = Homo sapiens, MES-SA/Dx5-eGFP, coculture, 384-well plate, 144 h, read-out: IC50
[12] = Homo sapiens, Mes-Sa/Dx5 eGFP, 384-well plate, Table S6, read-out: pIC50 (mean) (converted)
[13] = 72 h, 384-well plate, read-out: IC50
[14] = Mes-Sa mCherry, 384-well plate, Table S6
[15] = MES-SA/B1-mOrange, coculture, 384-well plate, 144 h, read-out: IC50
[16] = Mes-Sa/B1 mOrange, 384-well plate, Table S6
[17] = MES-SA/Dx5-eGFP, coculture, 384-well plate, 144 h, read-out: IC50
[18] = Mes-Sa/Dx5 eGFP, 384-well plate, Table S6

Compound | logD at 4 h ([1]; c(Cl–) = 100 mM) | IC50 (MCF-7; [2]) [µM] | IC50 (MCF-7; [3]) [µM] | IC50 (MES-SA mCherry; [8]) [µM] | SR (MES-SA/B1) (MES-SA/B1-mOrange; 384-well plate) | SR (MES-SA/Dx5) (MES-SA/Dx5-eGFP; 384-well plate) | logD ([1]; c(Cl–) = 4 mM) | logD ([1]; c(Cl–) = 24 mM) | IC50 (MCF-7; [13]) [µM] | pIC50 (mean) (MCF-7) | IC50 (MDA-MB-231; [13]) [µM] | pIC50 (mean) (MDA-MB-231) | IC50 (T47D; [13]) [µM] | pIC50 (mean) (T47D) | pIC50 (mean) (MES-SA mCherry; [14]) | IC50 (MES-SA/B1-mOrange; [15]) [µM] | pIC50 (mean) (MES-SA/B1-mOrange; [16]) | IC50 (MES-SA/Dx5-eGFP; [17]) [µM] | pIC50 (mean) (MES-SA/Dx5-eGFP; [18]) | logD ([1]; c(Cl–) = 100 mM) | other results
Clc1ccnc2c1ccc1c(Cl)ccnc12 [DCP, 4,7-dichloro-1,10-phenanthroline] | 2.4 | 3.84 | 3.8 | 3.05 | 0.6 | 6.3 |  |  |  |  |  |  |  |  |  |  |  |  |  |  | IC50 (MDA-MB-231; [4]): 5.09 µM; IC50 (MDA-MB-231; [5]): 5.13 µM; IC50 (T47D; [4]): 4.29 µM; IC50 (T47D; [5]): 4.27 µM; IC50 (MES-SA mCherry; [6]): 3.1 µM; IC50 (MES-SA mCherry; [7]): 3.02 µM; IC50 (MES-SA/B1-mOrange; [9]): 4.9 µM; IC50 (MES-SA/B1-mOrange; [10]): 4.9 µM; IC50 (MES-SA/Dx5-eGFP; [11]): 0.48 µM; IC50 (MES-SA/Dx5-eGFP; [12]): 0.49 µM
[Rh(III)(η^5-C5Me5)(bathophenanthroline)Cl]Cl [RhCp*BP] |  |  |  |  | 1.1 | 6.7 | +0.82 ± 0.01 | +1.35 ± 0.03 | 14.9 | 4.83 | 4.68 | 5.33 | 5.28 | 5.28 | 5.81 | 1.37 | 5.86 | 0.23 | 6.63 |  | IC50 (MES-SA mCherry; MES-SA mCherry, coculture, 96-well plate, media replaced before measurement, read-out: IC50): 2.9 µM; IC50 (MES-SA mCherry; MES-SA mCherry, coculture, 384-well plate, 144 h, listed as [RhCp*(BP)Cl]Cl, read-out: IC50): 1.56 µM; pIC50 (mean) (MES-SA mCherry; Mes-Sa mCherry, 96-well plate, Table S6): 5.54; IC50 (MES-SA/B1-mOrange; MES-SA/B1-mOrange, coculture, 96-well plate, media replaced before measurement, read-out: IC50): 2.43 µM; pIC50 (mean) (MES-SA/B1-mOrange; Mes-Sa/B1 mOrange, 96-well plate, Table S6): 5.61; SR (MES-SA/B1) (MES-SA/B1-mOrange; 96-well plate): 1.2; IC50 (MES-SA/Dx5-eGFP; MES-SA/Dx5-eGFP, coculture, 96-well plate, media replaced before measurement, read-out: IC50): 1.77 µM; pIC50 (mean) (MES-SA/Dx5-eGFP; Mes-Sa/Dx5 eGFP, 96-well plate, Table S6): 5.75; SR (MES-SA/Dx5) (MES-SA/Dx5-eGFP; 96-well plate): 1.6
Cc1ccc(C(C)C)cc1.[Cl-].[Cl-].[Ru+2].c1ccc(-c2ccnc3c2ccc2c(-c4ccccc4)ccnc23)cc1 [RuCymBP, [Ru(II)(η^6-p-cymene)(bathophenanthroline)Cl]Cl] |  |  |  | 0.53 | 0.01 | 0.01 | +1.46 ± 0.02 | +1.97 ± 0.02 | 1.93 | 5.71 | 1.23 | 5.91 | 1.86 | 5.73 | 6.28 | 55 | 4.26 | 41 | 4.39 | +2.48 ± 0.02 | 
Cc1ccc(C(C)C)cc1.Clc1ccnc2c1ccc1c(Cl)ccnc12.[Cl-].[Cl-].[Ru+2] [RuCymDCP, [Ru(II)(η^6-p-cymene)(4,7-dichloro-1,10-phenanthroline)Cl]Cl] |  |  |  | 65.6 |  |  | –0.55 ± 0.04 | +0.04 ± 0.12 | 76.4 | 4.12 | > 100 |  | 75 | 4.13 | 4.18 | > 100 |  | > 100 |  | +0.35 ± 0.12 | 
Cc1c(C)c(C)[c-](C)c1C.Clc1ccnc2c1ccc1c(Cl)ccnc12.[Cl-].[Cl-].[Rh+3] [RhCp*DCP, [Rh(III)(η^5-C5Me5)(4,7-dichloro-1,10-phenanthroline)Cl]Cl] |  |  |  |  | 0.7 | 5.6 | –1.03 ± 0.03 | –0.59 ± 0.02 | 5.92 | 5.23 | 7.56 | 5.12 | 7.36 | 5.13 | 5.38 | 6.38 | 5.20 | 0.75 | 6.12 | –0.38 ± 0.02 | IC50 (MES-SA mCherry; MES-SA mCherry, coculture, 384-well plate, 144 h, listed as [RhCp*(DCP)Cl]Cl, read-out: IC50): 4.2 µM and 4.22 µM
c1ccc(-c2ccnc3c2ccc2c(-c4ccccc4)ccnc23)cc1 [BP, 4,7-diphenyl-1,10-phenanthroline] | 3.69 | 0.59 | 0.589 |  | 3.4 | 54.7 |  |  |  |  |  |  |  |  |  |  |  |  |  |  | IC50 (MDA-MB-231; [4]): 0.76 µM; IC50 (MDA-MB-231; [5]): 0.759 µM; IC50 (T47D; [4]): 0.63 µM; IC50 (T47D; [5]): 0.631 µM; IC50 (MES-SA mCherry; [6]): 0.47 µM; IC50 (MES-SA mCherry; [7]): 0.468 µM; IC50 (MES-SA/B1-mOrange; [9]): 0.14 µM; IC50 (MES-SA/B1-mOrange; [10]): 0.138 µM; IC50 (MES-SA/Dx5-eGFP; [11]): 0.01 µM; IC50 (MES-SA/Dx5-eGFP; [12]): 0.00851 µM
